Reference: publication doi:10.1101/2024.12.25.630315 (bioRxiv, 2024)

Tests used:
HT1376 tumors = experiment: EV therapy response and PET target engagement, HT1376 xenografts; format: in vivo, mouse
Method: Mice with tumor volume of ~100-150 mm^3 were injected with ~[…] (7.4 MBq) of [^68Ga]AJ647 in […] of 5% ethanol in saline intravenously and anesthetized under 2.5% isoflurane. PET-CT images were acquired at 60 minutes after radiotracer injection at 5 min/bed in an ARGUS small-animal PET/CT scanner (Sedecal, Madrid, Spain) as described (n=3 unless otherwise noted). PET-MR images were acquired on a simultaneous 7T Bruker PET-MR scanner. Dynamic imaging was conducted to evaluate pharmacokinetics of [^68Ga]AJ647. [^68Ga]AJ647 was injected (with help of catheter) after mice was anesthetized under 2.5% isoflurane on the equipment bed. All PET data were reconstructed using the two-dimensional ordered subsets-expectation maximization algorithm (2D-OSEM) and corrected for radioactive decay and dead time. The SUV values were calculated by finding percent of injected activity (%IA) based on a calibration factor obtained from a known radioactive quantity, then normalizing by mice weight. […] For change in accessible Nectin-4 levels following EV treatment, ΔSUV was calculated by subtracting baseline (pre-treatment) uptake from post-therapy uptake of [^68Ga]AJ647. Target engagement was quantified by normalizing this change by initial SUV in same subject controls. […] Mice body weight and tumor measurements were recorded until saline group tumors reached 1500 mm^3 average size. […] Briefly, the percentage change in volume relative to baseline: % tumor volume change (ΔVolt) = 100% × ((Vt -[…]). BestResponse was the lowest ΔVolt for t ≥ 10 days. For each time t, the average ΔVolt from t = 0 to t was calculated, with the BestAvgResponse defined as the lowest average ΔVolt for t ≥ 10 days. Modified response criteria (mRECIST), adapted from RECIST21, were as follows: mCR (BestResponse < -95%, BestAvgResponse < -40%), mPR (BestResponse < -50%, BestAvgResponse < -20%), mSD (BestResponse < 35%, BestAvgResponse < 30%), and mPD (all others). We defined mPD as non-responders (0 response) and stable disease or better as responders (1 response). […]

Nectin-4 [1] = molecular target: T1, Nectin-4 (Homo sapiens, UniProt Q96NY8); experiment: In vivo Nectin-4 engagement by EV, HT1376 tumors (ex vivo biodistribution of [^68Ga]AJ647); parameters: species or system mouse; conditions: NSG mice, single i.v. dose of EV (15 mg/kg in text, 20 mpk in legend/methods) 24 hours before tracer, ex vivo biodistribution 60 min, n=5, P < 0.0001
T1 construct: host or cells: HT1376, SCaBER, T24, RT112, UC9, UC14 urothelial carcinoma cells; HT1376 xenografts in NSG mice
T1 sequence (Q96NY8 32-510): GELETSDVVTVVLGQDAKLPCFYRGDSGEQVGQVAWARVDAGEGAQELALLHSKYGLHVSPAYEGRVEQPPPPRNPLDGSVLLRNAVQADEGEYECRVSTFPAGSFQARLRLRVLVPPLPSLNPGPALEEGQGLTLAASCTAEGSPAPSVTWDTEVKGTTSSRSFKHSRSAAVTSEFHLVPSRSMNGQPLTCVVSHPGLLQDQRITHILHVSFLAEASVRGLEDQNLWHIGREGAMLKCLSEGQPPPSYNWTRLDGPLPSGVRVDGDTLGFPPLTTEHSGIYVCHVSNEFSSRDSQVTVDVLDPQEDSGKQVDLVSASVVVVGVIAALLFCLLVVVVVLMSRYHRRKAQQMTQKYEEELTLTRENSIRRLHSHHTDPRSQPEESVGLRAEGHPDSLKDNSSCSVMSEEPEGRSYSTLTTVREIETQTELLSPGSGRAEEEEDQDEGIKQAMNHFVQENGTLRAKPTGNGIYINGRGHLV
Method: (§1) To validate imaging studies, ex vivo biodistribution studies were conducted in mice with tumors of size 100–200 mm^3. Mice received ~50 μCi (1.85 MBq) of [^68Ga]AJ647 in […] of 5% ethanol in saline intravenously and mice were sacrificed at 5–180 min after [^68Ga]AJ647 injection for pharmacokinetic evaluation (n=4 per timepoint). In all other studies, 60 min time-point was chosen. Selected tissues (Blood, Skin, Muscle, Bone, Salivary glands, Tumor, Lungs, Heart, Liver, Pancreas, Spleen, Kidneys, Bladder, Testicles) were collected, weighed, counted, and their %IA/g values calculated as described previously (PMID: 37793856). For EV pharmacodynamics studies, fewer organs were harvested to accommodate more number of mice.
(§2) Male NSG mice were implanted subcutaneously with HT1376 and SCaBER cells (4 million each) on the right and left rostral end, respectively. On day 25 after cell inoculation (average tumor volume=200±35 mm^3), mice were randomized and treated with a single dose of either saline or 20 mpk EV ADC injected intravenously (volume not exceeding 300 μL) or with 200 μL saline (n=7/group). 24 hours following the EV dose, [^68Ga]AJ647 PET scans (n=2/group) were acquired and ex vivo biodistribution (n=5/group) was performed using the protocols mentioned above.

Nectin-4 [2] = molecular target: T1, Nectin-4; experiment: In vivo Nectin-4 engagement by EV, SCaBER tumors (ex vivo biodistribution of [^68Ga]AJ647); parameters: species or system mouse; conditions: NSG mice, single i.v. dose of EV (15 mg/kg in text, 20 mpk in legend/methods) 24 hours before tracer, ex vivo biodistribution 60 min, n=5, P < 0.001
Method: as §1, §2

**Q.** enfortumab vedotin [EV] was tested. Which “share of mice with less than 50% target engagement” value (HT1376 tumors; EV 6 and 15 mg/kg groups, day 6 PET) did it give?
**A.** The value was 50%.

**Q.** What about the “responders (mRECIST, stable disease or better)” value (HT1376 tumors; EV-treated mice with higher target engagement, irrespective of dose) of the same substance?
**A.** The value was 7/8.

**Q.** What about the “responders (mRECIST, stable disease or better)” value (HT1376 tumors; EV-treated mice with less than 30% target engagement) of the same substance?
**A.** The value was 0/12.

**Q.** What about the “reduction in [^68Ga]AJ647 uptake in EV-treated tumors compared to controls” value (Nectin-4 [1]) of the same substance?
**A.** The value was 84%.

**Q.** What about the “reduction in [^68Ga]AJ647 uptake in EV-treated tumors compared to controls” value (Nectin-4 [2]) of the same substance?
**A.** The value was 72%.
